Measured values taken from patent US9458123B2, “Methods, pharmaceutical compositions, therapeutic systems, and compounds for treating B cell malignancies” (University of Rochester, priority 2012, dated 2016).

How the values were obtained:
[1] = system: PMA-induced NF-κB activation in SUDHL-6 cells; assay: IκBα phosphorylation after PMA, western blot; assay type: cell-based; conditions: SUDHL-6, PMA 100 ng/ml
Method: SUDHL-6, RAW264.7, and MEF cells were treated with NSC697923 or DMSO (control) for 1 hour before being stimulated with the PMA (100 ng/ml), RANKL (15 ng/ml), and LPS (1.5 μg/ml) for the indicated times. The levels of IκBα phosphorylation in the indicated samples were assessed by western blotting.

multiple myeloma cells = assay: Growth of multiple myeloma cells, trypan blue exclusion assay; assay type: cell-based; conditions: 24 hours
Method: (§1) The indicated multiple myeloma cells were seeded at 300,000 cells/mL in 6-well plates and cultured in the presence of DMSO (0.2%, control) or various concentrations of NSC697923 for 24 hours. The live and dead cells were counted using the trypan blue exclusion assay. Shown are the means from 3 separate experiments. The average number of live cells in the control was set at 100.
as §1, with “It has been shown that multiple myeloma cells also depend on NF-kB signaling for survival. It was thus hypothesized that these cells may also sensitive to NSC697923 treatment. […] The indicated” for “The indicated”

ABC DLBCL cells = assay: Growth of ABC DLBCL cells, trypan blue exclusion assay; assay type: cell-based; conditions: including OCI-Ly3 cells, 24 hours
Method: The indicated ABC DLBCL cells were seeded at 3×10^5 cells/ml in 6-well plates and cultured in the presence of DMSO (0.2%, control) or various concentrations of NSC697923 for 24 hours. The live and dead cells were counted using the trypan blue exclusion assay. Shown are the means from three separate experiments. The average number of live cells in the control was set at 100. […] The levels of the indicated proteins were analyzed by western blotting. For caspase 3 detection, a mixture of an antibody for the uncleaved form and an antibody specific for the cleaved form was used. In FIG. 7C, OCI-Ly10 cells were treated as in FIG. 7A. The apoptotic cells (Annexin V positive cells) were measured by flow cytometry as described in Example 1 infra. A representative result from three independent experiments is depicted. […] BrdU was then added into the culture medium for 30 minutes before the cell-cycle distribution of the treated cells was analyzed as described in Example 1 infra. Shown are the averages from two independent experiments. […] BrdU was then added into the culture medium for 30 minutes before the cell-cycle distribution of the treated cells was analyzed as described in Example 1 infra. Shown are the averages from two independent experiments. […]

Ubc13 = biological target: T1, Ubc13 (Homo sapiens, UniProt P61088); assay: In vitro Ubc13~Ub thioester conjugate formation; assay type: biochemical; conditions: E1, Ubc13-Uev1A, ubiquitin, ATP
T1 construct: purchased Boston Biochem Inc E2-600 (Ubc13); E2-662 (Uev1A)
Method: Purified GST or GST-Ubc13 fusion proteins were incubated with the cell extract prepared from OCI-Ly10 cells with or without the presence of NSC697923 as indicated. The amounts of Uev1A protein associated with GST or GST-Ubc13 were analyzed by western blotting. The first lane was loaded with 8% of the input cell lysate. […] The assay was carried out as described in FIG. 4A, except that the loading buffer for SDS-PAGE gel contains no reducing agent, unless otherwise specified, and the reaction was analyzed by western blotting with a Ubc13-specific antibody. […] The assay was carried out as in FIG. 5B, except that UbcHSc, instead of Ubc13 and Uev1A, was used in the ubiquitination reaction and that a UbcHSc antibody was used for western blot analysis.
For detecting the E2-ubiquitin (Ubc13˜Ub or UbcH5c˜Ub) thioester conjugates, the reactions were carried out as described above without GST-TRAF6. The reactions were terminated with the SDS-sample buffer without a reducing agent unless specified. The products were analyzed by western blotting with an anti-Ubc13 or anti-UbcHSc antibody as indicated.

T1 sequence (P61088 whole entry): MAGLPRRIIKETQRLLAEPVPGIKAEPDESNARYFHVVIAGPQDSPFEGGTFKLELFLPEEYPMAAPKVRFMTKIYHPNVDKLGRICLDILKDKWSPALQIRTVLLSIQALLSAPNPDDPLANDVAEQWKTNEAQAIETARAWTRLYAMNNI
T1 sequence (Q13404 whole entry partner): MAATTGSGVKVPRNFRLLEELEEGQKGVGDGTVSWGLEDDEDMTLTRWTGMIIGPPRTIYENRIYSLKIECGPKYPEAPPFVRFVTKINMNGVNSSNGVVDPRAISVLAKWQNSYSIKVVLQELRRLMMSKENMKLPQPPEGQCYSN

Compound: Cc1ccc(S(=O)(=O)c2ccc([N+](=O)[O-])o2)cc1 [NSC697923, 2-nitro-5-tosylfuran]
- PMA-induced NF-κB activation (IκBα phosphorylation) [1]: inhibiting
- growth of multiple myeloma cells (multiple myeloma cells): inhibits the growth of multiple myeloma cells
- proliferation and survival of ABC DLBCL cells (ABC DLBCL cells): induced proliferation arrest and cell death
- formation of Ubc13~Ub thioester conjugate (Ubc13): inhibited formation of this thioester conjugate
